Laboratory results: patent US20070082928A1, “Method for treating anxiety disorders, substance abuse/dependence, binge-eating disorders, insomnia and drug-induced flashbacks” (priority 2005, published 2007)

Key:
Assay type in all cases: in vivo, human
[1] = test system: Person with Generalized Anxiety (GAD), PTSD and cannabis dependence; assay: Case History 2: donepezil in a patient with GAD, PTSD, cannabis dependence, alcohol dependence and binge-eating disorder
Description: a person has no other psychiatric antecedent.
Despite them on-going biweekly psychotherapy, they continued to abuse cannabis at about 2 to 3 joints a day.

[2] = test system: Person with GAD anxiety symptoms; assay: Case history 3: donepezil in a patient with GAD anxiety symptoms persisting after MDD
Description: A person complained about insomnia, restlessness, tension, headaches, gastric symptoms, upset stomach, dizziness, fatigue, loss of appetite, and libido deficit. A person has been married for 13 years. Their spouse is a person working as an assistant director. The couple was well functioning, with two children, a child and a child in good health. A person was in good physical health and had no significant medical antecedent. A person had no previous psychiatric antecedent, nor any family history of mental disorders. […] […] a person is the youngest of 14 brothers and sisters.
A person was hospitalized in the Department of Psychiatry at Saint-Antoine Hospital and treated for MDD with venlafaxine from July 15 to Aug. […] Their anxiety consisted of excessive worrying, restlessness, tension, fatigue, loss of concentration, irritability, severe muscle tension and difficulty falling asleep. These symptoms met the GAD DSM IV criteria and persisted during the depressive episode and also when they no longer met the criteria for MDD. […] 9, 2005 to treat their anxiety symptoms. […] On Sep.

[3] = test system: Person with post-traumatic stress disorder (PTSD); assay: Case History 1: donepezil in a rape victim with PTSD after suspected GHB intake
Description: A person had been living in NYC for their work since January 2005. On Jun. 15, 2005, they met some friends after dinner and went dancing with them. They experienced a strange sensation late in the evening after drinking a glass of champagne. They remembered feeling drowsy and confused. They had to stop dancing because of a severe sedation and took a taxi. A […] they didn't know until now accompanied them to their apartment, which was unusual for them.
They didn't remember anything about the taxi drive and their trip back home. They remembered being with an unknown person and strangely being led down on their couch in their living room and looking at them.
Thereafter they repeatedly saw themself waking up in the morning and looking at their bed where they had discovered a preservative, a proof that a sexual behaviour had occurred between 2 and 6 am.
They experienced terrifying nightmares and repetitive uncontrolled behaviour consisting of looking at […] waking up alone with a desperate feeling of being sexually abused and of loneliness. […] About the evening and the rape they remembered only their inability to move, refusing sexual advances of the unknown person, and feeling uncomfortable because of their unusual behaviour.
On Jun. 20, 2005, they consulted in the Department of Psychiatry at Saint-Antoine Hospital in Paris. […] A legal procedure was initiated in NYC before coming back to Paris. […] A toxicological analysis was performed using hair sample for detection of the suspected drug GHB.
During the initial interview, they were unable to give any detail about the evening and the night of the rape. A person requested a method to decrease their anxiety symptoms, insomnia and nightmares associated with the traumatic event. After a discussion about the case, it was decided on Jun.

[4] = 5 mg once a day, after one week, on ongoing venlafaxine
[5] = two weeks after increase to 5 mg b.i.d.
[6] = 5 mg once a day, after one week
[7] = 5 mg once a day, patient report

With `CN1CCN2c3ncccc3Cc3ccccc3C2C1` (stereo not drawn) [mirtazapine] the “depressive symptoms (MDD)” value ([1]; 15 mg h.s. with biweekly psychotherapy, after 2 months of treatment) was “complete recovery”.

`COc1ccc(C(CN(C)C)C2(O)CCCCC2)cc1` (stereo not drawn) [venlafaxine] was tested, and the anxiety symptoms ([2]; ongoing venlafaxine 100 mg t.i.d.) was “did not respond” and the “depression (MDD)” value ([2]; treated from July 15 to Aug. 8, 2005, in hospital) was “recovered completely”.

In the case of `COc1cc2c(cc1OC)C(=O)C(CC1CCN(Cc3ccccc3)CC1)C2.Cl` (racemic) [donepezil, (±)-2,3-dihydro-5,6-dimethoxy-2-[[1-(phenylmethyl)-4-piperidinyl]methyl]-1H-inden-1-one hydrochloride], the anti-anxiety effect [2, 4] is reported as “definite anti-anxiety effect”, the side effects [2, 4] is reported as “No side effects were observed” and the “anxiety symptoms / return to work” value ([2]; 6 days after increase to 5 mg b.i.d.) is reported as “able to return to work without any anxious symptoms”. The “recall of details of the traumatic event” value ([3]; 5 mg once a day, after 7 days) was “some of the details of the post-traumatic event”, the sleep and nightmares ([3]; 5 mg once a day, after 7 days) was “slept better without nightmares” and the anxiety ([3]; 5 mg once a day, after one week of treatment) was “began to feel less anxious”. For the same compound, the anxiety and tension [3, 5] was “no more anxious nor tense”, the sleep [3, 5] was “returned to normal without nightmares” and the alcohol intake ([1]; 5 mg once a day) was “significantly produced a decrease”. The “verbal fluency and cognitive performances” value ([1]; 5 mg once a day) was “did not improve”, the binge-eating disorder [1, 6] was “completely disappeared” and the nightmares [1, 6] was “completely disappeared”. For the same compound, the “craving for caffeine, nicotine, cannabis and binge-eating” value ([1]; 5 mg once a day, follow-up) was “significantly improved to the extent of disappearing”, the “GAD anxiety symptoms (nervousness, muscle tension, restlessness, anxiety, worry, insomnia, and tremor)” value ([1]; 5 mg once a day, follow-up August 30 and Sept. 2, 2005) was “much improved” and the euphoria [1, 7] was “no longer euphoric”. For the same compound, the judgement [1, 7] was “significantly improved”, the motor coordination [1, 7] was “improved” and the “sensations of slowed time” value [1, 7] was “no more sensations of slowed time”. For the same compound, the social withdrawal [1, 7] was “no longer socially withdrawn”, the cannabis smoking ([1]; 5 mg once a day, before: 2 to 3 joints a day) was “completely stop cannabis smoking without any withdrawal symptoms, nor craving symptoms” and the “effect of dose increase (nightmares related to drug withdrawal)” value ([1]; increased to 5 mg b.i.d.) was “further improvement with disappearance of nightmares”.
